Measured values reported in patent US9006440B2, “Furopyridine derivatives” (Merck Patent GmbH, priority 2010, dated 2015).

How the values were obtained:
Assay type in all cases: biochemical
KDR = biological target: T1, KDR (Homo sapiens, UniProt P35968); assay: KDR enzymatic assay (Caliper LifeSciences technology)
T1 construct: purchased BPS Bioscience, CA, USA
Procedure: (§1) The assays described here are performed on the Caliper Life Sciences LC3000 system This technology provides data on enzyme activity via measurement of the relative amounts of phosphorylated or unphosphorylated fluorescently labelled substrate peptide at the end of an enzymatic reaction. These different states of peptide are resolved by applying a potential difference across the sample. The presence of the charged phosphate group on the product (as opposed to the substrate) causes a different peptide mobility between the two peptides. This is visualized by excitation of the fluorescent label on the substrate and product peptides and represented as peaks within the analysis software.
(§2) In order to measure inhibitor activity of kinase inhibitors on this technology, a TTP Mosquito liquid handling instrument is used to place 0.25 ul of the appropriate concentration of inhibitor in 100% DMSO (for a dose response curve calculation) into each well of a 384-well plate. To this reaction components are added to a final volume of 25 ul. The table below indicates the sequences and concentrations for the assays described in this report. Standard components are 1 mM DTT (Sigma, D0632), 1 mM MgCl2 (Sigma, M1028), 100 mM HEPES pH 7.5 (Calbiochem, 391338), 0.015% Brij-35 (Sigma, B4184).
(§3) The reaction is incubated for 90 min at 25 C, and then stopped by the addition of 70 ul of Stop buffer (100 mM HEPES pH 7.5, 0.015% Brij-35, 10 mM EDTA (Sigma, E7889)).
(§4) The plate is read on a Caliper LC 3000 in an Off-Chip mobility shift assay format, on a 12-sipper chip. Unphosphorylated substrate and phosphorylated product peptide resolve as separate peaks allowing direct measurement of percentage of conversion of substrate to product. The percent conversion can be plotted against concentration of inhibitor to produce a sigmoidal dose response curve, from which an IC50 can be calculated using GeneData Condoseo or a similar product.

Syk = biological target: T2, Syk (Homo sapiens, UniProt P43405); assay: Syk enzyme assay (SYK flash plate assay / Caliper mobility shift)
T2 construct: purchased BPS Bioscience, CA, USA
Summary of the method: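 Flashplate format: 2.5 nM SYK, 400 nM biotinylated peptide, 10 μM ATP with 33P-ATP, pH 7.5, 1 h at 30 °C; radioactivity read, staurosporine background. Caliper format: 90 min at 25 °C, mobility-shift read of substrate-to-product conversion; IC50 from dose-response curve.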

SRC = biological target: T3, SRC (Homo sapiens, UniProt P12931); assay: Src enzymatic assay (Caliper LifeSciences technology)
T3 construct: purchased Carna Bioscience, Kobe, Japan
T3 sequence (P12931 whole entry): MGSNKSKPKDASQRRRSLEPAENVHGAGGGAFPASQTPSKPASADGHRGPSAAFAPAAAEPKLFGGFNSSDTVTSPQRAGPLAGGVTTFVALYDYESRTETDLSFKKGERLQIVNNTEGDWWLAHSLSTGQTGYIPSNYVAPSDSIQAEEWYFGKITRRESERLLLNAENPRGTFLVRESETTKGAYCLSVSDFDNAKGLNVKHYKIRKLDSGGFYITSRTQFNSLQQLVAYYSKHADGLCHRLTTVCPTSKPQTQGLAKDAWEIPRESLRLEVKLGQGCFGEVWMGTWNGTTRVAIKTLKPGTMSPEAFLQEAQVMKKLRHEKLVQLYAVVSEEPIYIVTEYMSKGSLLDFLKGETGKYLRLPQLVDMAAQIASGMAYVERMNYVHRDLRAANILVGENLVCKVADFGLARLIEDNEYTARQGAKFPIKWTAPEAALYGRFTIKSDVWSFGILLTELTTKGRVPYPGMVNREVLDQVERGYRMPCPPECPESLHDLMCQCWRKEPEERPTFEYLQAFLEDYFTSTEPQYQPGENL
Procedure: as §1, §2, §3, §4

BTK = biological target: T4, BTK (Homo sapiens, UniProt Q06187); assay: BTK enzymatic assay (Caliper LifeSciences technology)
T4 construct: purchased Carna Bioscience, Kobe, Japan
T4 sequence (Q06187 whole entry): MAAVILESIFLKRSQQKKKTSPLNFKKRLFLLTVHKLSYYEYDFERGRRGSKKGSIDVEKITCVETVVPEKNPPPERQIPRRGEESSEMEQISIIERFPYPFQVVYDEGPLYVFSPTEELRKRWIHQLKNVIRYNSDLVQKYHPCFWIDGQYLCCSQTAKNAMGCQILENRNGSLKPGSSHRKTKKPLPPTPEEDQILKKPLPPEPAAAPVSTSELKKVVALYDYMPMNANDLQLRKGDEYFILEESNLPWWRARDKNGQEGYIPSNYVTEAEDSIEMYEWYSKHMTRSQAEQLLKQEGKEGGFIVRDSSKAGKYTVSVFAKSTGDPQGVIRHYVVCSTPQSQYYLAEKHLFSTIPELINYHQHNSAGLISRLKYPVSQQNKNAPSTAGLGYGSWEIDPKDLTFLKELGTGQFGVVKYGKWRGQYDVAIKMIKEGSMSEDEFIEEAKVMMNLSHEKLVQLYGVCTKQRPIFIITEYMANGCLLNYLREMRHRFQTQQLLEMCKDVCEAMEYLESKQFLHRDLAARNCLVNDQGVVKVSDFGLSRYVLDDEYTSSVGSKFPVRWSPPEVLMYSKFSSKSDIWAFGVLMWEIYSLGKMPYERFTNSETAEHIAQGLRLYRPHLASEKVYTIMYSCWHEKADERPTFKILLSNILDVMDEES
Procedure: as §1, §2, §3, §4

T1 sequence (P35968 20-1356): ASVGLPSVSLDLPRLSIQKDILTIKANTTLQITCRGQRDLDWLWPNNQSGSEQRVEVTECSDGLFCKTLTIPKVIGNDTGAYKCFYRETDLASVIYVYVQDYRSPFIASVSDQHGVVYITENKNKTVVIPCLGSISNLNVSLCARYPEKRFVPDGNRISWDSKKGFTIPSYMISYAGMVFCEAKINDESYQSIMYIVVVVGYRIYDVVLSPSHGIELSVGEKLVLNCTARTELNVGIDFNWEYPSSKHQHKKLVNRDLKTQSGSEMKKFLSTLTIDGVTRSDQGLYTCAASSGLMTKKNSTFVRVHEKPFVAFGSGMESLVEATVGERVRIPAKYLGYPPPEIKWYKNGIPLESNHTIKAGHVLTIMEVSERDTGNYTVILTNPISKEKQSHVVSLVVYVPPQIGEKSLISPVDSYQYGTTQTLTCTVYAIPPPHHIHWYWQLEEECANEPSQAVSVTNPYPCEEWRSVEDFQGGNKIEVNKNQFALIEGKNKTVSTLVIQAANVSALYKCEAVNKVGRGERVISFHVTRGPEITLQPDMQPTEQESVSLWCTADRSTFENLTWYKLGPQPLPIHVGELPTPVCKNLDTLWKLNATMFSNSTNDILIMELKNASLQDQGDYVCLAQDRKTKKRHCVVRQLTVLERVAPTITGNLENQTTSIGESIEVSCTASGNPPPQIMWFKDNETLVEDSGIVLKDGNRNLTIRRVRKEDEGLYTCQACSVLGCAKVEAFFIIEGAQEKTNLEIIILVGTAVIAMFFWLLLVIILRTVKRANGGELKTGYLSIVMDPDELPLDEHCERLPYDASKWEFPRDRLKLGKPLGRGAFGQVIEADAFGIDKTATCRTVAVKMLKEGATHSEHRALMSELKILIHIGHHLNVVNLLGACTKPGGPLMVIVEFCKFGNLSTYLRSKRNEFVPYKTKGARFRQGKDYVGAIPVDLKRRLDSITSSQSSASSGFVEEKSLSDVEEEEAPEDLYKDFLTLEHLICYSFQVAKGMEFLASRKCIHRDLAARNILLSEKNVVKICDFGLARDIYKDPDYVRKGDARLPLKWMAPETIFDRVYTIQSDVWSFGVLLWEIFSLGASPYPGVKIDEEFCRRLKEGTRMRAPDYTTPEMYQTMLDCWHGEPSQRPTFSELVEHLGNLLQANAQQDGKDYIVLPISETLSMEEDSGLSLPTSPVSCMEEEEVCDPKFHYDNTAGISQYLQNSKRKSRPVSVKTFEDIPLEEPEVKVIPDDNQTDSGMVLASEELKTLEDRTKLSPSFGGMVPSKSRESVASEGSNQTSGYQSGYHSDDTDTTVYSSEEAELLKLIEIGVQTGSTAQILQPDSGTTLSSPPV

Compound | IC50 (KDR) | IC50 (Syk) | IC50 (SRC) | IC50 (BTK)
COc1ccc(-c2cc3nccc(-c4ccc(OC)c(OC)c4OC)c3o2)c(OC)c1OC [Compound B40, 2,7-Bis-(2,3,4-trimethoxy-phenyl)-furo[3,2-b]pyridine] | 300 to 3000 nM | 300 to 3000 nM | 3000 to 50000 nM | –
Cc1noc(C)c1-c1cc2nccc(-c3c(C)noc3C)c2o1 [Compound B41, 2,7-Bis-(3,5-dimethyl-isoxazol-4-yl)-furo[3,2-b]pyridine] | 3000 to 50000 nM | 3000 to 50000 nM | 3000 to 50000 nM | –
Cc1ccc(-c2cc3nccc(Nc4ccc5[nH]ccc5c4C)c3o2)cc1 [Compound B46, (4-Methyl-1H-indol-5-yl)-(2-p-tolyl-furo[3,2-b]pyridin-7-yl)-amine] | 300 to 3000 nM | 3000 to 50000 nM | < 300 nM | –
COc1ccc(-c2cc3nccc(Nc4ccc5[nH]ccc5c4C)c3o2)cc1 [Compound B47, [2-(4-Methoxy-phenyl)-furo[3,2-b]pyridin-7-yl]-(4-methyl-1H-indol-5-yl)-amine] | 300 to 3000 nM | 3000 to 50000 nM | 300 to 3000 nM | –
Cc1c(Nc2ccnc3cc(-c4ccc5c(c4)OCO5)oc23)ccc2[nH]ccc12 [Compound B48] | 300 to 3000 nM | 300 to 3000 nM | < 300 nM | –
COc1c(C)cc(-c2cc3nccc(Nc4ccc5[nH]ccc5c4C)c3o2)cc1C [Compound B49, [2-(4-Methoxy-3,5-dimethyl-phenyl)-furo[3,2-b]pyridin-7-yl]-(4-methyl-1H-indol-5-yl)-amine] | 300 to 3000 nM | 300 to 3000 nM | < 300 nM | –
COc1ccc(-c2cc3nccc(Nc4ccc5[nH]ccc5c4C)c3o2)cc1C [Compound B50, [2-(4-Methoxy-3-methyl-phenyl)-furo[3,2-b]pyridin-7-yl]-(4-methyl-1H-indol-5-yl)-amine] | 300 to 3000 nM | 300 to 3000 nM | 300 to 3000 nM | –
Cc1cccc(-c2cc3nccc(Nc4ccc5[nH]ccc5c4C)c3o2)c1 [Compound B51, (4-Methyl-1H-indol-5-yl)-(2-m-tolyl-furo[3,2-b]pyridin-7-yl)-amine] | 300 to 3000 nM | 3000 to 50000 nM | 300 to 3000 nM | –
Cc1cc(C)cc(-c2cc3nccc(Nc4ccc5[nH]ccc5c4C)c3o2)c1 [Compound B52, [2-(3,5-Dimethyl-phenyl)-furo[3,2-b]pyridin-7-yl]-(4-methyl-1H-indol-5-yl)-amine] | 300 to 3000 nM | 300 to 3000 nM | 300 to 3000 nM | –
COc1ccc(-c2cc3nccc(Nc4ccc5[nH]ccc5c4C)c3o2)cc1OC [Compound B53, [2-(3,4-Dimethoxy-phenyl)-furo[3,2-b]pyridin-7-yl]-(4-methyl-1H-indol-5-yl)-amine] | < 300 nM | < 300 nM | < 300 nM | –
Cc1c(Nc2ccnc3cc(-c4ccc(N5CCOCC5)cc4)oc23)ccc2[nH]ccc12 [Compound B54] | 300 to 3000 nM | 300 to 3000 nM | < 300 nM | –
COc1ccc(-c2cc3nccc(Nc4ccc5[nH]ccc5c4C)c3o2)c(OC)c1OC [Compound B56] | < 300 nM | 300 to 3000 nM | < 300 nM | –
COc1cccc(-c2cc3nccc(Nc4ccc5[nH]ccc5c4C)c3o2)c1 [Compound B57, [2-(3-Methoxy-phenyl)-furo[3,2-b]pyridin-7-yl]-(4-methyl-1H-indol-5-yl)-amine] | < 300 nM | 300 to 3000 nM | < 300 nM | –
Cc1c(Nc2ccnc3cc(-c4ccc(OCCCN(C)C)cc4)oc23)ccc2[nH]ccc12 [Compound B58, {2-[4-(3-Dimethylamino-propoxy)-phenyl]-furo[3,2-b]pyridin-7-yl}-(4-methyl-1H-indo-5-yl)-amine] | < 300 nM | 300 to 3000 nM | < 300 nM | –
COc1cccc(-c2cc3nccc(Nc4ccc5[nH]ccc5c4C)c3o2)c1OC [Compound B59, [2-(2,3-Dimethoxy-phenyl)-furo[3,2-b]pyridin-7-yl]-(4-methyl-1H-indol-5-yl)-amine] | < 300 nM | 300 to 3000 nM | < 300 nM | –
Cc1c(Nc2ccnc3cc(-c4ccc5c(c4)OCCO5)oc23)ccc2[nH]ccc12 [Compound B60, [2-(2,3-Dihydro-benzo[1,4]dioxin-6-yl)-furo[3,2-b]pyridin-7-yl]-(4-methyl-1H-indol-5-yl)-amine] | 300 to 3000 nM | 300 to 3000 nM | < 300 nM | –
Cc1noc(C)c1-c1cc2nccc(Nc3ccc4[nH]ccc4c3C)c2o1 [Compound B63, [2-(3,5-Dimethyl-isoxazol-4-yl)-furo[3,2-b]pyridin-7-yl]-(4-methyl-1H-indol-5-yl)-amine] | < 300 nM | 300 to 3000 nM | < 300 nM | –
COc1ccc(-c2cc3nccc(-c4ccccc4)c3o2)cc1NC(=O)[C@@H]1C[C@@H](O)CN1 [Compound C40] | 300 to 3000 nM | 300 to 3000 nM | 3000 to 50000 nM | –

Compound | IC50 (KDR) | IC50 (Syk) | IC50 (SRC) | IC50 (BTK)
COc1cc(-c2cc3nccc(-c4cnc5c(c4)CCCO5)c3o2)cc(OC)c1OC [Compound C113] | 300 to 3000 nM | < 300 nM | 300 to 3000 nM | –
COc1cc(-c2cc3nccc(-c4c[nH]nc4C)c3o2)cc(OC)c1OC [Compound C127] | 300 to 3000 nM | < 300 nM | 300 to 3000 nM | –
COc1ccc(O)cc1-c1ccnc2cc(-c3cc(OC)c(OC)c(OC)c3)oc12 [Compound C136] | 300 to 3000 nM | < 300 nM | 300 to 3000 nM | –
COc1cc(-c2cc3nccc(-c4cc(OC(C)C)cc(C(=O)O)c4)c3o2)cc(OC)c1OC [Compound C155] | 300 to 3000 nM | < 300 nM | 300 to 3000 nM | –
COc1cc(-c2cc3nccc(-c4cc(OC(F)(F)F)cc(C(=O)O)c4)c3o2)cc(OC)c1OC [Compound C163] | 300 to 3000 nM | < 300 nM | 300 to 3000 nM | –
COc1ccc(OC)c(-c2cc3nccc(-c4cccc(C(=O)N[C@@H]5CCCC[C@@H]5N)c4)c3o2)c1 [Compound C178] | 300 to 3000 nM | < 300 nM | < 300 nM | –
C=CC(=O)NCc1cccc(-c2cc3nccc(Oc4ccc(Oc5ccccc5)cc4)c3o2)c1 [Compound D4, N-{3-[7-(4-Phenoxy-phenoxy)-furo[3,2-b]pyridin-2-yl]-benzyl}-acrylamide] | – | – | – | < 300 nM
CCC(=O)Nc1cccc(-c2cc3nccc(Oc4ccccc4)c3o2)c1 [Compound D8, N-[3-(7-Phenoxy-furo[3,2-b]pyridin-2-yl)-phenyl]-propionamide] | – | – | – | 3000 to 50000 nM
C=CC(=O)Nc1cccc(-c2cc3nccc(Oc4cccc(Cl)c4)c3o2)c1 [Compound D9, N-{3-[7-(3-Chloro-phenoxy)-furo[3,2-b]pyridin-2-yl]-phenyl}-acrylamide] | – | – | – | 3000 to 50000 nM
C=CC(=O)Nc1cccc(-c2cc3nccc(Oc4ccc5ncccc5c4)c3o2)c1 [Compound D10, N-{3-[7-(Quinolin-6-yloxy)-furo[3,2-b]pyridin-2-yl]-phenyl}-acrylamide] | – | – | – | 3000 to 50000 nM
C=CC(=O)Nc1cccc(-c2cc3nccc(Oc4ccc(Cl)cc4)c3o2)c1 [Compound D11, N-{3-[7-(4-Chloro-phenoxy)-furo[3,2-b]pyridin-2-yl]-phenyl}-acrylamide] | – | – | – | 300 to 3000 nM
CCC(=O)Nc1cccc(-c2cc3nccc(-c4ccccc4)c3o2)c1 [Compound D14, N-[3-(7-Phenyl-furo[3,2-b]pyridin-2-yl)-phenyl]-propionamide] | – | – | – | 3000 to 50000 nM
C=CC(=O)NCc1cccc(-c2cc3nccc(-c4ccccc4)c3o2)c1 [Compound D15, N-[3-(7-Phenyl-furo[3,2-b]pyridin-2-yl)-benzyl]-acrylamide] | – | – | – | 300 to 3000 nM
O=C(CCl)NCc1cccc(-c2cc3nccc(-c4ccccc4)c3o2)c1 [Compound D16, 2-Chloro-N-[3-(7-phenyl-furo[3,2-b]pyridin-2-yl)-benzyl]-acetamide] | – | – | – | 300 to 3000 nM
C=CC(=O)Nc1cccc(Oc2ccnc3cc(-c4ccccc4)oc23)c1 [Compound D19, N-[3-(2-Phenyl-furo[3,2-b]pyridin-7-yloxy)-phenyl]-acrylamide] | – | – | – | 300 to 3000 nM
O=C(CCl)Nc1cccc(Oc2ccnc3cc(-c4ccccc4)oc23)c1 [Compound D20, 2-Chloro-N-[3-(2-phenyl-furo[3,2-b]pyridin-7-yloxy)-phenyl]-acetamide] | – | – | – | < 300 nM
CCC(=O)Nc1cccc(Oc2ccnc3cc(-c4ccccc4)oc23)c1 [Compound D21, N-[3-(2-Phenyl-furo[3,2-b]pyridin-7-yloxy)-phenyl]-propionamide] | – | – | – | 3000 to 50000 nM
C=CC(=O)Nc1ccc(Oc2ccnc3cc(-c4ccccc4)oc23)cc1 [Compound D22, N-[4-(2-Phenyl-furo[3,2-b]pyridin-7-yloxy)-phenyl]-acrylamide] | – | – | – | 300 to 3000 nM
